Measurements taken from paper PMC6639057 (Investigational new drugs, 2018).

System: patients with advanced solid tumors
Assay: Adverse events
[1] = escalation 30 mg + G-CSF (n = 6)
[2] = escalation 35 mg + G-CSF (n = 3)

Cc1csc(-c2nnc(Nc3ccc(Oc4ncccc4-c4ccnc(N)n4)cc3)c3ccccc23)c1 [AMG 900]
Grade ≥ 3 treatment-related AEs: Nausea (escalation 24 mg (n = 6)): 0 n (%) | Grade ≥ 3 treatment-related AEs: Neutropenia (escalation 24 mg (n = 6)): 4 (67) n (%) | Grade ≥ 3 treatment-related AEs: Thrombocytopenia (escalation 24 mg (n = 6)): 0 n (%) | Grade ≥ 3 treatment-related AEs: Vomiting (escalation 24 mg (n = 6)): 0 n (%) | Grade ≥ 3 treatment-related AEs: White blood cell count decreased (escalation 24 mg (n = 6)): 0 n (%) | Grade ≥ 4 AEs (escalation 24 mg (n = 6)): 3 (50) n (%) | Serious AEs (escalation 24 mg (n = 6)): 1 (17) n (%) | AEs leading to discontinuation of AMG 900 (escalation 25 mg (n = 7)): 2 (29) n (%) | All treatment-emergent AEs (escalation 25 mg (n = 7)): 7 (100) n (%) | All treatment-related AEs (escalation 25 mg (n = 7)): 5 (71) n (%) | Fatal AEs (escalation 25 mg (n = 7)): 1 (14) n (%) | Grade ≥ 3 AEs (escalation 25 mg (n = 7)): 3 (43) n (%) | Grade ≥ 3 treatment-related AEs (escalation 25 mg (n = 7)): 2 (29) n (%) | Grade ≥ 3 treatment-related AEs: Anemia (escalation 25 mg (n = 7)): 2 (29) n (%) | Grade ≥ 3 treatment-related AEs: Diarrhea (escalation 25 mg (n = 7)): 0 n (%) | Grade ≥ 3 treatment-related AEs: Fatigue (escalation 25 mg (n = 7)): 0 n (%) | Grade ≥ 3 treatment-related AEs: Febrile neutropenia (escalation 25 mg (n = 7)): 0 n (%) | Grade ≥ 3 treatment-related AEs: Hemoglobin decreased (escalation 25 mg (n = 7)): 1 (14) n (%) | Grade ≥ 3 treatment-related AEs: Leukopenia (escalation 25 mg (n = 7)): 1 (14) n (%) | Grade ≥ 3 treatment-related AEs: Lymphopenia (escalation 25 mg (n = 7)): 0 n (%) | Grade ≥ 3 treatment-related AEs: Nausea (escalation 25 mg (n = 7)): 0 n (%) | Grade ≥ 3 treatment-related AEs: Neutropenia (escalation 25 mg (n = 7)): 1 (14) n (%) | Grade ≥ 3 treatment-related AEs: Thrombocytopenia (escalation 25 mg (n = 7)): 0 n (%) | Grade ≥ 3 treatment-related AEs: Vomiting (escalation 25 mg (n = 7)): 0 n (%) | Grade ≥ 3 treatment-related AEs: White blood cell count decreased (escalation 25 mg (n = 7)): 0 n (%) | Grade ≥ 4 AEs (escalation 25 mg (n = 7)): 2 (29) n (%) | Serious AEs (escalation 25 mg (n = 7)): 1 (14) n (%) | AEs leading to discontinuation of AMG 900 (escalation 30 mg (n = 6)): 4 (67) n (%) | All treatment-emergent AEs (escalation 30 mg (n = 6)): 6 (100) n (%) | All treatment-related AEs (escalation 30 mg (n = 6)): 6 (100) n (%) | Fatal AEs (escalation 30 mg (n = 6)): 0 n (%) | Grade ≥ 3 AEs (escalation 30 mg (n = 6)): 6 (100) n (%) | Grade ≥ 3 treatment-related AEs (escalation 30 mg (n = 6)): 4 (67) n (%) | Grade ≥ 3 treatment-related AEs: Anemia (escalation 30 mg (n = 6)): 0 n (%) | Grade ≥ 3 treatment-related AEs: Diarrhea (escalation 30 mg (n = 6)): 0 n (%) | Grade ≥ 3 treatment-related AEs: Fatigue (escalation 30 mg (n = 6)): 0 n (%) | Grade ≥ 3 treatment-related AEs: Febrile neutropenia (escalation 30 mg (n = 6)): 0 n (%) | Grade ≥ 3 treatment-related AEs: Hemoglobin decreased (escalation 30 mg (n = 6)): 0 n (%) | Grade ≥ 3 treatment-related AEs: Leukopenia (escalation 30 mg (n = 6)): 3 (50) n (%) | Grade ≥ 3 treatment-related AEs: Lymphopenia (escalation 30 mg (n = 6)): 0 n (%) | Grade ≥ 3 treatment-related AEs: Nausea (escalation 30 mg (n = 6)): 0 n (%) | Grade ≥ 3 treatment-related AEs: Neutropenia (escalation 30 mg (n = 6)): 4 (67) n (%) | Grade ≥ 3 treatment-related AEs: Thrombocytopenia (escalation 30 mg (n = 6)): 1 (17) n (%) | Grade ≥ 3 treatment-related AEs: Vomiting (escalation 30 mg (n = 6)): 0 n (%) | Grade ≥ 3 treatment-related AEs: White blood cell count decreased (escalation 30 mg (n = 6)): 0 n (%) | Grade ≥ 4 AEs (escalation 30 mg (n = 6)): 6 (100) n (%) | Serious AEs (escalation 30 mg (n = 6)): 3 (50) n (%) | AEs leading to discontinuation of AMG 900 [1]: 1 (17) n (%) | All treatment-emergent AEs [1]: 6 (100) n (%) | All treatment-related AEs [1]: 6 (100) n (%) | Fatal AEs [1]: 0 n (%) | Grade ≥ 3 AEs [1]: 5 (83) n (%) | Grade ≥ 3 treatment-related AEs [1]: 3 (50) n (%) | Grade ≥ 3 treatment-related AEs: Anemia [1]: 1 (17) n (%) | Grade ≥ 3 treatment-related AEs: Diarrhea [1]: 0 n (%) | Grade ≥ 3 treatment-related AEs: Fatigue [1]: 0 n (%) | Grade ≥ 3 treatment-related AEs: Febrile neutropenia [1]: 0 n (%) | Grade ≥ 3 treatment-related AEs: Hemoglobin decreased [1]: 0 n (%) | Grade ≥ 3 treatment-related AEs: Leukopenia [1]: 2 (33) n (%) | Grade ≥ 3 treatment-related AEs: Lymphopenia [1]: 0 n (%) | Grade ≥ 3 treatment-related AEs: Nausea [1]: 0 n (%) | Grade ≥ 3 treatment-related AEs: Neutropenia [1]: 3 (50) n (%) | Grade ≥ 3 treatment-related AEs: Thrombocytopenia [1]: 2 (33) n (%) | Grade ≥ 3 treatment-related AEs: Vomiting [1]: 0 n (%) | Grade ≥ 3 treatment-related AEs: White blood cell count decreased [1]: 0 n (%) | Grade ≥ 4 AEs [1]: 2 (33) n (%) | Serious AEs [1]: 3 (50) n (%) | AEs leading to discontinuation of AMG 900 [2]: 0 n (%) | All treatment-emergent AEs [2]: 3 (100) n (%)
